Laboratory results taken from US20260234165A1, “MACROCYCLIC COMPOUNDS, PREPARATION METHOD THEREFOR, AND USE THEREOF” (GENFLEET THERAPEUTICS (SHANGHAI) INC., priority 2004, published 2026).
Where two headings read alike, the source gives them in different places.

Legend:
[1] = test system: p-ERK in AsPC-1 cells (KRAS G12D mutation); test: Cell p-ERK assay (HTRF) in AsPC-1 cells; assay type: cell-based, human; conditions: AsPC-1 cells, 3 h compound incubation, HTRF p-ERK T202/Y204, read-out: AsPC-1 p-ERK IC50
How it was run: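 AsPC-1 (10000/well) or NCI-H441 (20000/well) cells were seeded in RPMI-1640 with 10% FBS, grown overnight, then exposed to 3.16-fold compound dilutions (0.1% DMSO) for 3 h at 37 °C. Lysates were read for phospho-ERK T202/Y204 by HTRF; IC50 came from four-parameter fits of inhibition versus DMSO and blank wells.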

[2] = Pharmacokinetic study in rats; assay type: in vivo, Sprague-Dawley (SD) rats; conditions: male SD rats; for clearance / CL: IV; for AUC / Cmax: PO (intragastric), dose 10 mg/kg
Source text: A total of 6 healthy adult male Sprague-Dawley (SD) rats were provided by Zhejiang Vital River Laboratory Animal Technology Co., Ltd. For each test compound, 6 healthy adult male SD rats were selected and randomly divided into 2 groups: an intravenous administration (IV) group and an intragastric administration (PO) group. The LC-MS/MS method was used to determine the drug concentrations in the plasma of rats at different time points after intravenous and intragastric administration of the test compounds. This experiment was intended to investigate the pharmacokinetic performance of the test compounds in rats and to evaluate the pharmacokinetic characteristics. Each drug used in the experiment was prepared from the test compound powder: An appropriate amount of test compound powder was weighed out, and appropriate amounts of DMSO, a 10% aqueous Solutol HS 15 solution, and a 6% aqueous HP-β-CD solution were sequentially added according to a volume ratio of 5:10:85. The mixture was vortexed and sonicated until clarification. The final concentration of the drug in the IV group was 0.5 mg/mL, and the final concentration of the drug in the PO group was 1 mg/mL; the concentrations could be adjusted according to actual needs. For the drug in the PO group of Z504, an appropriate amount of test compound powder was weighed out, and an appropriate amount of 0.5% MC+0.2% Tween 80 aqueous solution was added. The mixture was well mixed by vortexing to give a 1 mg/mL homogeneous suspension: the concentration could be adjusted according to actual needs.
All experimental rats were fasted overnight, and food intake was resumed 4 h after administration. For the rats in the IV group, the administration volume was set at 2 mL/kg, with Z554 and Z915 administered at a dose of 0.5 mg/kg and the other compounds at a dose of 1 mg/kg. For the rats in the PO group, the administration volume was 10 mL/kg and the dose was 10 mg/kg. The administration amount was adjusted according to the body weight of the rats on the day of administration. In the experiment, blood samples were collected from the rats in the IV group at multiple time points (0.0833 h, 0.25 h, 0.5 h, 1 h, 2 h, 4 h, 7 h, and 24 h) after administration, while blood samples were collected from the PO group at 0.25 h, 0.5 h, 1 h, 2 h, 4 h, 7 h, and 24 h after administration, with approximately 100 μL collected each time via the orbital blood collection method.
The blood samples were placed in centrifuge tubes containing EDTA-K2 and centrifuged at 8000 rpm for 4 min within 30 min to separate the supernatant plasma. The resulting plasma samples were stored at −20° C. for later use. For sample analysis, 20 μL of each of plasma samples and calibration standards was added to a 96-well plate, and 160 μL of acetonitrile containing 100 ng/mL tolbutamide was added. The samples were vortexed for 5 min for uniform mixing, and then centrifuged at 4000 rpm for 15 min. After the centrifugation was completed, 50 μL of supernatant was added to a 96-well plate containing 150 μL of deionized water. The plate was then sealed and shaken for uniform mixing. Sample analysis was performed by LC-MS/MS.
The sampling volume could be adjusted according to actual needs, but the final concentration should be kept unchanged.

[3] = Sprague-Dawley, rat, plasma, dose 1 mg/kg
[4] = Sprague-Dawley, rat, plasma, read-out: AUC
[5] = Sprague-Dawley, rat, plasma, read-out: Cmax

| SMILES | IC50 ([1]; Homo sapiens, ASPC1, 3 h) [nM] | clearance [2, 3] [mL/min/kg] | AUC [2, 4] [ng·h/mL] | Cmax [2, 5] [ng/mL] | also measured |
| --- | --- | --- | --- | --- | --- |
| CCn1c(-c2cc(C#CCN3CCS(=O)(=O)CC3)cnc2[C@H](C)OC)c2c3cc(ccc31)-c1csc(n1)C[C@H](Nc1nnc3cc(C)ccn13)C(=O)N1CCC[C@H](N1)C(=O)OCC(C)(C)C2 (atropisomer, axis not shown; (Ra)) [Compound Z911, (6^3S,4S,Z)—(Ra)-1^2-(5-(3-(1,1-dioxidothiomorpholino)prop-1-yn-1-yl)-2-((S)-1-methoxyethyl)pyridin-3-yl)-1^1-ethyl-10,10-dimethyl-4-((7-methyl-[1,2,4]triazolo[4,3-a]pyridin-3-yl)amino)-6^1,6^2,6^3,6^4,6^5,6^6-hexahydro-1^1H-8-oxa-2(4,2)-thiazola-1(5,3)-indola-6(1.3)-pyridazinacycloundecaphane-5,7-dione] | 2.23 | 0.41 | 2540 | 427 |  |
| CCn1c(-c2cc(C#C[C@@H]3COCCN3C)cnc2[C@H](C)OC)c2c3cc(ccc31)-c1csc(n1)C[C@H](NC(=O)[C@H]1[C@H](C)[C@@H]1C)C(=O)N1CCC[C@H](N1)C(=O)OCC(C)(C)C2 (atropisomer, axis not shown; (Ra)) [Compound Z672, (1r,2R,3S)—N-((6^3S,4S,Z)-1^1-ethyl-(Ra)-1^2-(2-((S)-1-methoxyethyl)-5-(((R)-4-methylmorpholin-3-yl)ethynyl)pyridin-3-yl)-10,10-dimethyl-5,7-dioxo-6^1,6^2,6^3,6^4,6^5,6^6hexahydro-1^1H-8-oxa-2(4,2)-thiazola-1(5,3)-indola-6(1,3)-pyridazinacycloundecaphane-4-yl)-2,3-dimethylcyclopropane-1-carboxamide] | 0.39 | 11.8 | 2940 | 738 |  |
| CCn1c(-c2cc(C#CCN3C4CCC3COC4)cnc2[C@H](C)OC)c2c3cc(ccc31)-c1csc(n1)C[C@H](NC(=O)[C@H]1[C@H](C)[C@@H]1C)C(=O)N1CCC[C@H](N1)C(=O)OCC(C)(C)C2 (atropisomer, axis not shown; (Ra)) [Compound Z711, (1r,2R,3S)—N-((6^3S,4S,Z)—(Ra)-1^2-(5-(3-(3-oxa-8-azabicyclo[3.2.1]octan-8-yl)prop-1-yn-1-yl)-2-((S)-1-methoxyethyl)pyridin-3-yl)-1^1-ethyl-10,10-dimethyl-5,7-dioxo-6^1,6^2,6^3,6^4,6^5,6^6-hexahydro-1^1H-8-oxa-2(4,2)-thiazola-1(5,3)-indola-6(1,3)-pyridazinacycloundecaphane-4-yl)-2,3-dimethylcyclopropane-1-carboxamide] |  |  |  |  | IC50 [1]: 0.32 nM; CL ([2]; dose 1 mg/kg): 3.82 mL/min/kg; AUC [2]: 8876 ng·h/mL; Cmax [2]: 1867 ng/mL |
| CCn1c(-c2cc(C#CCN3CCCOCC3)cnc2[C@H](C)OC)c2c3cc(ccc31)-c1csc(n1)C[C@H](NC(=O)[C@H]1C[C@@H]1C)C(=O)N1CCC[C@H](N1)C(=O)OCC(C)(C)C2 (single isomer, unassigned) [Compound Z604] | 0.51 | 2.46 | 14600 | 3010 |  |
| CCn1c(-c2cc(N3CCN(CCS(C)(=O)=O)CC3)cnc2[C@H](C)OC)c2c3cc(ccc31)-c1csc(n1)C[C@H](NC(=O)[C@H]1[C@H](C)[C@@H]1C)C(=O)N1CCC[C@H](N1)C(=O)OCC1(CC1)C2 (single isomer, unassigned) [Compound Z367] | 7.29 |  |  |  |  |
| CCn1c(-c2cc(C#CCN3CCCOCC3)cnc2[C@H](C)OC)c2c3cc(ccc31)-c1csc(n1)C[C@H](NC(=O)CC1CC1)C(=O)N1CCC[C@H](N1)C(=O)OCC(C)(C)C2 (atropisomer, axis not shown; (Ra)) [Compound Z915] | 1.26 |  | 6840 | 1730 | clearance ([2]; Sprague-Dawley, rat, plasma, dose 0.5 mg/kg): 6 mL/min/kg |
| CCn1c(-c2cc(C#CCN3CCN(C)C(=O)C3)cnc2[C@H](C)OC)c2c3cc(ccc31)-c1csc(n1)C[C@H](NC(=O)[C@H]1[C@H](C)[C@@H]1C)C(=O)N1CCC[C@H](N1)C(=O)OCC(C)(C)C2 (atropisomer, axis not shown; (Ra)) [Compound Z793] | 0.19 | 3.16 | 5920 | 2040 |  |
| CCn1c(-c2cc(C#CCN3CCS(=O)(=O)CC3)cnc2[C@H](C)OC)c2c3cc(ccc31)-c1csc(n1)C[C@H](NC(=O)[C@H]1[C@H](C)[C@@H]1C)C(=O)N1CCC[C@H](N1)C(=O)OCC(C)(C)C2 (atropisomer, axis not shown; (Ra)) [Compound Z838, (1r,2R,3S)—N-((6^3S,4S,Z)—(Ra)-1^2-(5-(3-(1,1-dioxidothiomorpholino)prop-1-yn-1-yl)-2-((S)-1-methoxyethyl)pyridin-3-yl)-1^1-ethyl-10,10-dimethyl-5,7-dioxo-6^1,6^2,6^3,6^4,6^5,6^6-hexahydro-1^1H-8-oxa-2(4,2)-thiazola-1(5,3)-indola-6(1,3)-pyridazinacycloundecaphane-4-yl)-2,3-dimethylcyclopropane-1-carboxamide] | 0.08 | 2.51 | 3900 | 1400 |  |
| CCn1c(-c2cc(C#CCN3CCCOCC3)cnc2C(C)C)c2c3cc(ccc31)-c1csc(n1)C[C@H](NC(=O)[C@H]1[C@H](C)[C@@H]1C)C(=O)N1CCC[C@H](N1)C(=O)OCC(C)(C)C2 (atropisomer, axis not shown; (Sa)) [Compound Z811-2, (1r,2R,3S)—N-((6^3S,4S,Z)—(Sa)-1-(5-(3-(1,4-oxazepan-4-yl)prop-1-yn-1-yl)-2-isopropylpyridin-3-yl)-1^1-ethyl-10,10-dimethyl-5,7-dioxo-6^1,6^2,6^3,6^4,6^5,6^6-hexahydro-1^1H-8-oxa-2(4,2)-thiazola-1(5,3)-indola-6(1,3)-pyridazinacycloundecaphane-4-yl)-2,3-dimethylcyclopropane-1-carboxamide] |  |  |  |  | IC50 [1]: 0.58 nM; CL ([2]; dose 1 mg/kg): 1.14 mL/min/kg; AUC [2]: 29002 ng·h/mL; Cmax [2]: 4303 ng/mL |
| CCn1c(-c2cc(N3CCN4CC5(CC5)OC[C@@H]4C3)cnc2[C@H](C)OC)c2c3cc(ccc31)-c1csc(n1)C[C@H](NC(=O)[C@H]1[C@H](C)[C@@H]1C)C(=O)N1CCC[C@H](N1)C(=O)OCC1(CC1)C2 (atropisomer, axis not shown; (Ra)) [Compound Z13] | 2.24 |  |  |  |  |
| CCO[C@@H](C)c1ncc(N2CCN(CCS(C)(=O)=O)CC2)cc1-c1c2c3cc(ccc3n1CC)-c1csc(n1)C[C@H](NC(=O)[C@H]1[C@H](C)[C@@H]1C)C(=O)N1CCC[C@H](N1)C(=O)OCC1(CC1)C2 (single isomer, unassigned) [Compound Z378-1] | 10.6 |  |  |  |  |
| CCn1c(-c2cc(C#CCN3CCCN(C)CC3)cnc2[C@H](C)OC)c2c3cc(ccc31)-c1csc(n1)C[C@H](NC(=O)[C@H]1[C@H](C)[C@@H]1C)C(=O)N1CCC[C@H](N1)C(=O)OCC(C)(C)C2 (atropisomer, axis not shown; (Ra)) [Compound Z802, (1r,2R,3S)—N-((6^3S,4S,Z)-1^2-(5-(3-(4-methyl-1,4-diaza-1-yl)prop-1-yn-1-yl)-(Ra)-2-((S)-1-methoxyethyl)pyridin-3-yl)-1^1-ethyl-10,10-dimethyl-5,7-dioxo-6^1,6^2,6^3,6^4,6^5,6^6-hexahydro-1^1H-8-oxa-2(4,2)-thiazola-1(5,3)-indola-6(1,3)-pyridazinacycloundecaphane-4-yl)-2,3-dimethylcyclopropane-1-carboxamide] | 0.2 |  |  |  |  |
